From patent US20200397718A1, “USE OF HYDROXYTYROSOL ACETATE IN IMPROVING FUNCTION OF AORTIC ENDOTHELIAL CELL” (XI'AN JIAOTONG UNIVERSITY, priority 2019, published 2020)

Columns and labels:
[1] = test system: IL-6, MMP-1, ICAM-1 and PAI-1 mRNA in human aortic endothelial cells; test: mRNA levels of IL-6, MMP-1, ICAM-1 and PAI-1 (RT-PCR) in palmitic acid-induced inflammation of HAECs; assay type: cell-based
Procedure: (§1) Human aortic endothelial cells (HAECs) were purchased from Shanghai Shanghai Bioleaf Biotech Co., Ltd. Palmitic acid (PA) was purchased from SIGMA Company. A palmitic acid solution having a concentration of 500 μM was prepared by dissolving palmitic acid in water. A cell culture incubator was adopted to culture the cells in a temperature-constant, humidified, sterile condition. The cells were cultured in wells of culture plates at an atmosphere of 95% air and 5% CO2 at 37° C. in the incubator. The experiments were performed on different experimental groups of cells. The experiments were performed on three experimental groups of cells: (1) control group; (2) 500 μM palmitic acid treatment group; and (3) hydroxytyrosol acetate protection group.
(§2) The HAECs that were previously cultured in a 12-well cell culture plate were divided into 5 different experimental groups and respectively applied with hydroxytyrosol acetate in respective concentrations, 0 μM, 0 μM, 10 μM, 50 μM, and 100 μM, all followed with an 24-hour incubation. Then, the last 4 groups of cells were respectively applied with 500 μM palmitic acid, the first was not, all followed with another 24-hour incubation. The detecting of mRNA levels corresponding to interleukin-6 (IL-6), matrix metalloproteinase-1 (MMP-1), intercellular adhesion molecule-1 (ICAM-1) and plasma plasminogen activator inhibitor-1 (PAI-1) were respectively carried out on each group of cells by using reverse transcription RNA and real-time quantitative polymerase chain reaction (PCR), and the specific method is as follows:
The medium for cell culture in the wells was removed. 500 μL of TRIzol™ reagent was added to each well, and the culture plate was then shaken at room temperature for 5 minutes. Then the cells in the wells were collected and transferred to a 1.5 mL Eppendorf® (EP) tube. 200 μl (taking ⅕ of total volume of the substance in the EP tube) of chloroform was then added to the EP tube for extraction of protein. […] The concentration of the solution was measured by an ultraviolet spectrophotometer. […]

[2] = test system: interleukin-6 (IL-6) mRNA; test: mRNA level corresponding to IL-6 (RT-PCR) in HAECs; assay type: cell-based, human; details: 500 μM palmitic acid, 24 h
Procedure: as §1, with “The experiments were performed on three experimental groups of cells: (1) control group; (2) 500 μM palmitic acid treatment group; and (3) hydroxytyrosol acetate protection group.” left out
as §2, with “Then, the last 4 groups of cells were respectively applied with 500 μM palmitic acid, the first was not, all followed with another 24-hour incubation.” left out
(§3) The medium for cell culture in the wells was removed. […] The concentration of the solution was measured by an ultraviolet spectrophotometer. […]

[3] = test system: matrix metalloproteinase-1 (MMP-1) mRNA; test: mRNA level corresponding to MMP-1 (RT-PCR) in HAECs; assay type: cell-based, human; details: 500 μM palmitic acid, 24 h
Procedure: as §1, with “The experiments were performed on three experimental groups of cells: (1) control group; (2) 500 μM palmitic acid treatment group; and (3) hydroxytyrosol acetate protection group.” left out
as §2, with “Then, the last 4 groups of cells were respectively applied with 500 μM palmitic acid, the first was not, all followed with another 24-hour incubation.” left out
as §3

[4] = test system: reactive oxygen species in human aortic endothelial cells; test: Detection of reactive oxygen species (H2DCF-DA) in HAECs; assay type: cell-based
Procedure: as §1
The cultured HAECs were divided into 3 different experimental groups, the control (Ctrl) group, the PA group, and the hydroxytyrosol acetate+PA (HTac+PA) group. The cells of the HTac+PA group were applied with hydroxytyrosol acetate in a concentration of 100 μM followed with a 24-hour incubation. Then, the cells of both the PA group and the HTac+PA group were applied with 500 μM palmitic acid, all followed with another 24-hour incubation.
After treating the cells with hydroxytyrosol acetate and palmitic acid, and discarding the medium, the cells were rinsed once with PBS. […] The supernatant was collected and measured by a microplate reader.

[5] = test system: mitochondrial membrane fusion-related proteins Mfn1, Mfn2; test: Western blot of mitochondrial membrane fusion-related proteins in HAECs; assay type: cell-based, human
Procedure: as §1, with “group. […]” for “group.”
The medium for cell culture in the wells was removed. […] The supernatants were collected, and the proteins therein were quantified by bicinchoninic acid (BCA) assay, and normalized. […]
10 μg of the extracted proteins were subjected to gel electrophoresis with 10% acrylamide gel, and electrophoretic transferred onto a PVDF membrane, which were blocked, and incubated with a primary antibody at 4° C. overnight, free primary antibody was washed away. […] Target proteins were detected by chemiluminescence.

[6] = test system: human aortic endothelial cells (HAECs); test: MTT assay, relative cell viability of human aortic endothelial cells; assay type: cell-based
Procedure: as §1
The HAECs that were previously cultured in a 12-well cell culture plate were divided into 4 different experimental groups and respectively applied with hydroxytyrosol acetate in different concentrations, 0 μM, 10 μM, 50 μM, and 100 μM, all followed with an 24-hour incubation. […]
An MTT assay was performed to all groups of cells. […] The absorbance was measured at a wavelength of 490 nm in a spectrophotometer. The absorbance of this colored solution can be quantified by measuring at a certain wavelength (usually between 500 and 600 nm) by a spectrophotometer.

[7] = 100 μM, 24 h pre-treatment, then 500 μM palmitic acid 24 h

Compound	inflammatory cytokines IL-6, MMP-1, ICAM-1 and PAI-1 versus control group ([1]; 500 μM palmitic acid, 24 h)	increase of mRNA level corresponding to IL-6 versus control [2]	increase of mRNA level corresponding to MMP-1 versus control [3]	production of reactive oxygen species ROS ([4]; 500 μM palmitic acid, 24 h)	expression of mitochondrial membrane fusion-related proteins Mfn1, Mfn2 ([5]; 500 μM palmitic acid, 24 h)	proliferation of human aortic endothelial cells ([6]; 100 μM hydroxytyrosol acetate, 24 h)	toxic and side effects on human aortic endothelial cells ([6]; HAECs, 0-100 μM, FIG. 1)	inhibition of the palmitic acid-induced inflammatory response (mRNA IL-6, MMP-1, ICAM-1, PAI-1) ([1]; 50 μM, 24 h pre-treatment, then 500 μM palmitic acid 24 h)	inhibitory effect on the palmitic acid-induced inflammatory response (mRNA IL-6, MMP-1, ICAM-1, PAI-1) ([1]; 100 μM, 24 h pre-treatment, then 500 μM palmitic acid 24 h, compared with 50 μM)	production of excessive reactive oxygen species induced by palmitic acid [4, 7]	expression of Mfn2 [5, 7]
CCCCCCCCCCCCCCCC(=O)O [palmitic acid, reference compound]	significantly higher	about 20 times	about 10 times	a large amount	reducing	–	–	–	–	–	–
hydroxytyrosol acetate	–	–	–	–	–	promoted	no toxic and side effects	significant inhibition	more obvious	significantly inhibit	significantly increasing
